This passage reports EC50, AC50 and IC50 results from ChEMBL document CHEMBL1201862, “PubChem BioAssay data set” (2004).

Active and inactive are the calls of the source.

In experiment [1] the target is 5-hydroxytryptamine receptor 5A (Homo sapiens, UniProt P47898). The experiment in a line: Counterscreen for agonists of OPRM1-OPRD1 heterodimerization: luminescence-based cell-based high throughput dose response assay to identify agonists of 5-hydroxytryptamine (serotonin) 5A receptor (HTR5A). [Related pubchem assays (depositor defined):AID504326, AID504355, AID504692, AID504904, AID504905]. It counts as functional. (In general: Counterscreens check selectivity or assay interference.)
5-hydroxytryptamine receptor 5A, sequence (P47898 whole entry): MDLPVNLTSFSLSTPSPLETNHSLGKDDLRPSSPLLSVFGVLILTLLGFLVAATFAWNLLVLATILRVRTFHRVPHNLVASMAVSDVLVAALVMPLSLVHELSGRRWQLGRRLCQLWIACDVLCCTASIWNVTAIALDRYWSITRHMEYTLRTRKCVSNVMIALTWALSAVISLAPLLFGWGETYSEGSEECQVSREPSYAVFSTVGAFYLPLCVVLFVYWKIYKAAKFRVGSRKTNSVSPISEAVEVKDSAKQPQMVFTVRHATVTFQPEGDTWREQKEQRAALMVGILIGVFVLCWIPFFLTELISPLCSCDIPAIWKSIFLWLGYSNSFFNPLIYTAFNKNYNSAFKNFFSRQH

The target of a further experiment is Mu-type opioid receptor (Homo sapiens, UniProt P35372). Put plainly: Counterscreen for agonists of heterodimerization of the mu 1 (OPRM1) and delta 1 (OPRD1) opioid receptors: Luminescence-based cell-based high throughput dose response assay to identify agonists of OPRM1 homodimerization. In kind it is functional.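 Note: U2OS cells expressing OPRM1 and beta-arrestin as split beta-galactosidase partners.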
Mu-type opioid receptor, sequence (P35372 whole entry): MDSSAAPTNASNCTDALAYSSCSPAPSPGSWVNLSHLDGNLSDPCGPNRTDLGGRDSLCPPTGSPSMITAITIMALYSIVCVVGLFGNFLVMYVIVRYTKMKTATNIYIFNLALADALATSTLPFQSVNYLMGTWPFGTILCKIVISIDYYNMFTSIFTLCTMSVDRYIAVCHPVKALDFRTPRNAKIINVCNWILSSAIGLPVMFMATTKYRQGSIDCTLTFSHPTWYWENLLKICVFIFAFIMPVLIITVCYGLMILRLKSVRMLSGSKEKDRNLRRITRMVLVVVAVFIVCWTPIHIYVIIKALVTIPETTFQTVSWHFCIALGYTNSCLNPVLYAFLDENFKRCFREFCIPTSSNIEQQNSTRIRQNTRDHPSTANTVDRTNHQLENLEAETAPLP
Experiment [2] addresses Delta-type opioid receptor (Homo sapiens, UniProt P41143). The experiment in a line: Counterscreen for agonists of heterodimerization of the mu 1 (OPRM1) and delta 1 (OPRD1) opioid receptors: Luminescence-based cell-based high throughput dose response assay to identify agonists of OPRD1 homodimerization. [Related pubchem assays (depositor defined):AID504326, AID504355, AID504692, AID504904, AID504905]. It counts as functional.

The target of experiment [3] is ATP-dependent molecular chaperone HSP82 (Candida albicans (strain WO-1) (Yeast), UniProt C4YTQ8). Put plainly: steroid-induced GRE reporter decrease in yeast – S. cerevisiae, luminescence, Hsp90 inhibitor project, dose response (AID 2400).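 Note: beta-galactosidase luminescence from glucocorticoid response element reporter as proxy for Hsp90 function; inhibitor potency where signal loss means Hsp90 inhibition.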 It counts as functional, cell-based.
ATP-dependent molecular chaperone HSP82, sequence (C4YTQ8 whole entry): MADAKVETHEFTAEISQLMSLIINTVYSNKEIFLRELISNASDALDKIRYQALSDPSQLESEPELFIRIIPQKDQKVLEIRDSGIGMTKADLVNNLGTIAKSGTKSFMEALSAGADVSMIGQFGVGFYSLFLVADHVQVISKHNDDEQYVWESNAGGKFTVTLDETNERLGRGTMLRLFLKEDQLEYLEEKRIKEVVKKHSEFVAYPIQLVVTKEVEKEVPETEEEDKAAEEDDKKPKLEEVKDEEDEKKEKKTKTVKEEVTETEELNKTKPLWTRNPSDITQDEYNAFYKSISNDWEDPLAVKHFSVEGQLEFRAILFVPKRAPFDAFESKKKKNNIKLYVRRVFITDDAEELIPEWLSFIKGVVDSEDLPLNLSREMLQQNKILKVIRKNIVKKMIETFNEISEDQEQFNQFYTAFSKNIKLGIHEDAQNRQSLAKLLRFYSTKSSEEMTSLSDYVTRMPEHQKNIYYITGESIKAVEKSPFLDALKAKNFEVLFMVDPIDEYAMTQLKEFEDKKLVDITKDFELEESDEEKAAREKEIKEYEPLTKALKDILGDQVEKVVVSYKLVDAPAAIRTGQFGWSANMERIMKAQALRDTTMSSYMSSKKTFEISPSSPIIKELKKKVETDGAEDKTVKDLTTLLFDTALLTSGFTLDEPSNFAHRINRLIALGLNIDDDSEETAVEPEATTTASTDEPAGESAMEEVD
In experiment [4] the target is T1, Serine/threonine-protein phosphatase (Candida dubliniensis (strain CD36 / CBS 7987 / NCPF 3949 / NRRLY-17841) (Yeast), UniProt B9W6M3).
T1 sequence (B9W6M3 whole entry): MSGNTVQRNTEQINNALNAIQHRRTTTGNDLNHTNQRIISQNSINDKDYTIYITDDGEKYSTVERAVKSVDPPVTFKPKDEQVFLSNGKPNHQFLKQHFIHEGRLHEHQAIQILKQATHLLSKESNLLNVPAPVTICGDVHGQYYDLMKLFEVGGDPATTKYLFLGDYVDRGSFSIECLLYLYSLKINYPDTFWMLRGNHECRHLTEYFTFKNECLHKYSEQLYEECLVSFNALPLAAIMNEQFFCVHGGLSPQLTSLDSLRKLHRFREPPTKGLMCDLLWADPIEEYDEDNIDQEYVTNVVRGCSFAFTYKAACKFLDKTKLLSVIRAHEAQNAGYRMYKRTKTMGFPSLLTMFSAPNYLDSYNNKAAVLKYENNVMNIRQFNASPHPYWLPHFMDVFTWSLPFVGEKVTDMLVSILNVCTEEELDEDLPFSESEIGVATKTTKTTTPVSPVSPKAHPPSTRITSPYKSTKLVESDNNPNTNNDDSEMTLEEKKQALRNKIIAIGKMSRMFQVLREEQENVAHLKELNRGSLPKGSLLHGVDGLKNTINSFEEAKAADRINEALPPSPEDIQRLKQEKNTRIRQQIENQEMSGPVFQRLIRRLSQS
The experiment in a line: blockers of CaCl2-induced CDRE-lacZ signaling – S. cerevisiae, luminescence, secondary, dose response (AID 2388).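 Note: yeast reporter cells carrying a calcineurin-responsive lacZ construct stimulated with calcium chloride; luminescent beta-galactosidase reporter signal in whole cells rather than isolated phosphatase activity; potency for inhibition where a drop in reporter signal means calcineurin blockade.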 It counts as functional, cell-based.

The nature of experiment [5]: fluconazole-exposed Candida albicans growth modulators – fluorescence, retest, confirmation (AID 2467). It counts as functional, cell-based.
Experiment [6] in a line: NIH-3T3 fibroblast cytotoxicity, dose response, cytotoxicity control, cell-based, fluorescence, Alamar Blue, secondary assay (AID 2327).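 Note: NIH-3T3 mouse fibroblasts cultured with fluconazole at 8 µg/mL.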 It counts as functional.
Experiment [7] can be described thus: Luminescence Cell-Based Dose Retest to Confirm Inhibitors of Cancer Stem Cells. [Related pubchem assays (depositor defined):AID2717, AID2721]. It counts as functional. The following applies: Homo sapiens.
Another experiment has as its system Escherichia coli. Put plainly: microbe, parasite or virus in culture.
Experiment [8] has as its target T2, Replicative DNA helicase DnaB (Mycobacterium tuberculosis, UniProt P9WMR3).
T2 sequence (P9WMR3 whole entry): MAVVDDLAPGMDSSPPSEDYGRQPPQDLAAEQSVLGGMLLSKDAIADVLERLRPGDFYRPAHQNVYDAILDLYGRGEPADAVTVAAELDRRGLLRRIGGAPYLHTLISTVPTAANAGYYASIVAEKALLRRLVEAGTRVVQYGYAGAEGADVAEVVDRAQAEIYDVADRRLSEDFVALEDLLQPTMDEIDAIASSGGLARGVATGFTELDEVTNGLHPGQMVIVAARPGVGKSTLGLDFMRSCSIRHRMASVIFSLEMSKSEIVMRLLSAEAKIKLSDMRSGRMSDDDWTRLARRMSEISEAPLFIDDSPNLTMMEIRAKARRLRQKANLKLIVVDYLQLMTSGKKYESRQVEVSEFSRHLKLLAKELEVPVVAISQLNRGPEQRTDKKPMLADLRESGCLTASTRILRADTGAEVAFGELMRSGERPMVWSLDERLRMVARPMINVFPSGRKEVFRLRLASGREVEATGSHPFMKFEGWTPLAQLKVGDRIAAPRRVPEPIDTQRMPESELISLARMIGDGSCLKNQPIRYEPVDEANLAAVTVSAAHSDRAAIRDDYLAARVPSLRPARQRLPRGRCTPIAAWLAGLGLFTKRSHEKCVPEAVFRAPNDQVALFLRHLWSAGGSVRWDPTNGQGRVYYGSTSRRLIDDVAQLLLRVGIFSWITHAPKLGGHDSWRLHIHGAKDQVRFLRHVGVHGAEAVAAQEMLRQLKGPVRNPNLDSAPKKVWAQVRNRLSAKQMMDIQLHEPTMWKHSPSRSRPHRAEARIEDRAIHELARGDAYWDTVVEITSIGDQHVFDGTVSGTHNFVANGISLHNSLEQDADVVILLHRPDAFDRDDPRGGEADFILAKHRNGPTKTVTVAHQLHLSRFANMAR
Put plainly: DnaB intein splicing inhibitors, dose response, biochemical, cell-free fluorescence (AID 449749). It counts as functional.

Experiment [9] concerns the target T3, Apoptotic protease-activating factor 1 (Homo sapiens, UniProt O14727).
T3 sequence (O14727 whole entry): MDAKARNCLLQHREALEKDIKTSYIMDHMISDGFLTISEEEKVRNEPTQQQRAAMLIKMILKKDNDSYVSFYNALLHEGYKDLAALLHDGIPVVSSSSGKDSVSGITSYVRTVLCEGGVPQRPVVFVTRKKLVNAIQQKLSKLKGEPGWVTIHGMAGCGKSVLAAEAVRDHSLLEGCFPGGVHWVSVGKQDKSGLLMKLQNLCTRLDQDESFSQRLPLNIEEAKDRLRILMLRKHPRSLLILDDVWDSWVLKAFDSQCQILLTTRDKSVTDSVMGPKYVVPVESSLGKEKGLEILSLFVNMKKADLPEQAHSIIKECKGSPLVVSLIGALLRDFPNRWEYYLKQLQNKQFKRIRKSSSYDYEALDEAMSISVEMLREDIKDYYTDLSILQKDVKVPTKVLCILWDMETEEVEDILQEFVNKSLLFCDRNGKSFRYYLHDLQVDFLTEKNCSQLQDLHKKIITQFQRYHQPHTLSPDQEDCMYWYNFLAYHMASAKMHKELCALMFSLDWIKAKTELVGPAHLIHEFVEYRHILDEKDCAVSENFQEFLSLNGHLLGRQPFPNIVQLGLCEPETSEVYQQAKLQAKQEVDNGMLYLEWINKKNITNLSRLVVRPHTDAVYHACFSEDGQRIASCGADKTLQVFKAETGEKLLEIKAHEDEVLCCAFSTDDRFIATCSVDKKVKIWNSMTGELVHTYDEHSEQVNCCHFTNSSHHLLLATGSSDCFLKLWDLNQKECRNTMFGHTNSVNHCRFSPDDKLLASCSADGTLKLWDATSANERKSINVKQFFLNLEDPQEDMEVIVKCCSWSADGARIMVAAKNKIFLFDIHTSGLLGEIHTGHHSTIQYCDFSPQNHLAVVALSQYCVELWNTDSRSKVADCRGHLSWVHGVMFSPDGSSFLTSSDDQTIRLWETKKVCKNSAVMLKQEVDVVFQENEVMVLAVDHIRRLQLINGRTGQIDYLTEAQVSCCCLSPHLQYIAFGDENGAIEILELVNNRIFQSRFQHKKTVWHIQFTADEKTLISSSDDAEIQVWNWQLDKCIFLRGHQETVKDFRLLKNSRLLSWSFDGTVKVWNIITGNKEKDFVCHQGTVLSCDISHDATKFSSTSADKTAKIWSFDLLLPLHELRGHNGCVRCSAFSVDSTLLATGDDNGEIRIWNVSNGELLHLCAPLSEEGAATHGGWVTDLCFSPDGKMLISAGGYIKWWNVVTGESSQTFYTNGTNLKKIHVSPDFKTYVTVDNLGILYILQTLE
It counts as functional.

In the next experiment the target is T4, Protein RecA (Mycobacterium tuberculosis, UniProt P9WHJ3).
T4 sequence (P9WHJ3 whole entry): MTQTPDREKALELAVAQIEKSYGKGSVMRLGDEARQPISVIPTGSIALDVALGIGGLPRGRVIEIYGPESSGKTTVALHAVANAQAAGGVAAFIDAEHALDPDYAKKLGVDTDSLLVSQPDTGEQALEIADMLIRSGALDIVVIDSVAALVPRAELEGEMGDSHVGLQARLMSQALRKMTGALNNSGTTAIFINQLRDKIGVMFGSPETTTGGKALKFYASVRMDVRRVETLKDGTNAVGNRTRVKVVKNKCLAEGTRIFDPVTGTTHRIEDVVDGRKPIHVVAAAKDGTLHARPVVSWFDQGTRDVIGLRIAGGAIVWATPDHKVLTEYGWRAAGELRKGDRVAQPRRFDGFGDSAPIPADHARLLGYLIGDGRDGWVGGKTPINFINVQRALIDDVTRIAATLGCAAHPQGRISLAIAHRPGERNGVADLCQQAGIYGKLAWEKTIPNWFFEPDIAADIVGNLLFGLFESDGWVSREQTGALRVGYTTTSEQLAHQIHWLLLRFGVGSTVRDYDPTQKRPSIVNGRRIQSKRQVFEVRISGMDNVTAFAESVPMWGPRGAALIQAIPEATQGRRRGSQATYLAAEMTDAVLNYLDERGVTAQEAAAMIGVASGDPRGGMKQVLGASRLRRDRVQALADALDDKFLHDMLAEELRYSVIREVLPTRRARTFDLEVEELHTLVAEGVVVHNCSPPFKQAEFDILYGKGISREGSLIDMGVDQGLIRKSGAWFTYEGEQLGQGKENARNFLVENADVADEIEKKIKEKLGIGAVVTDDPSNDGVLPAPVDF
The experiment in a line: Fluorescence Cell-Free Homogeneous Dose Retest to Identify Inhibitors of RecA-Intein Splicing Activity. [Related pubchem assays (depositor defined):AID2097, AID2223, AID489010, AID492950]. In kind it is functional.

Another experiment relates to A-375. Put plainly: MITF: Counter assay: A375 proliferation Measured in Cell-Based System Using Plate Reader - 2084-03_Inhibitor_Dose_DryPowder_Activity. [Related pubchem assays (depositor defined):AID488944]. The following applies: Homo sapiens. It counts as functional.
Experiment [10] has as its target T5, Microphthalmia-associated transcription factor (Homo sapiens, UniProt O75030).
T5 sequence (O75030 whole entry): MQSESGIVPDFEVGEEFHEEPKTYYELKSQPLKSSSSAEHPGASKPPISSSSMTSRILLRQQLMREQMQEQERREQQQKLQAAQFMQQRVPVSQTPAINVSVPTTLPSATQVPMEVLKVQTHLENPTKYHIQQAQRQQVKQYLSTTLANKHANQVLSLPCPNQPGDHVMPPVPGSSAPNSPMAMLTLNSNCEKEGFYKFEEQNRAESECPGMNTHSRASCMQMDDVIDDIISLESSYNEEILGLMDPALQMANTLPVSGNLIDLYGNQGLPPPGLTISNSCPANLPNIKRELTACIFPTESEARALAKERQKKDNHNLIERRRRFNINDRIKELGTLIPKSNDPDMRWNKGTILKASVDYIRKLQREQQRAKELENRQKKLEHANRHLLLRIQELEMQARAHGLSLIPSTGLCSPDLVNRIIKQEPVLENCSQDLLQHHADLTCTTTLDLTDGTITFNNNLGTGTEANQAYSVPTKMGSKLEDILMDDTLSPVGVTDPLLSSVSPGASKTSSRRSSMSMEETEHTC
Put plainly: reducers of TRPM1 reporter luminescence, concentration series – cell-based, SK-MEL-5, cherry-picked, set 3, MITF inhibitor project, dose response (AID 493073).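 Note: SK-MEL-5 melanoma cells with luciferase driven by the MITF target TRPM1 promoter.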 In kind it is functional.

Delta-type opioid receptor, sequence (P41143 whole entry): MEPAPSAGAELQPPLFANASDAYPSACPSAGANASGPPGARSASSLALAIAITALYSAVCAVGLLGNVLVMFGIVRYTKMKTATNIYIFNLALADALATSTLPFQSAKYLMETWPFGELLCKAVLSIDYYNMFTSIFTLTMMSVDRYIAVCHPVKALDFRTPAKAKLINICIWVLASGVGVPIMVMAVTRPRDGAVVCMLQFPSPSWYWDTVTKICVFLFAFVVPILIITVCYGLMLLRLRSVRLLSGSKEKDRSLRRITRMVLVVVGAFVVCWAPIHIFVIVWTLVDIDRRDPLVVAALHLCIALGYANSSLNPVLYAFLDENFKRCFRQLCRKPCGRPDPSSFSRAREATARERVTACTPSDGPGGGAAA

A word on the EC50: it is the concentration at which the effect is half-maximal. On to `Cc1ccc2[nH]c(SC(C(=O)Nc3ccc(F)cc3)c3ccccc3)nc2c1` (stereo not drawn), for which the EC50 (in experiment [1]; at Mu-type opioid receptor; in experiment [2]) was > 92.5 µM (inactive) in each case.

As for `CCCCCCSc1nnc2nc(O)cc(N)n12`, the EC50 was > 150 µM (inactive) in experiment [3], > 180 µM (inactive) in experiment [4], 0.52 µM (active) in [5] and 79.9 µM (active) in experiment [6].

For orientation: AC50 means the concentration at which the activity in the assay is half-maximal. Consider `CC1(NC(=O)CC(c2ccccc2)(c2ccccc2)c2ccccc2)CCN(CCCc2ccccc2)C1=O` (stereo not drawn), for which the EC50 (in [1]; at Mu-type opioid receptor; in experiment [2]) was > 92.5 µM (inactive) in each case. In addition, the AC50 in experiment [7] was 5.42 µM (active).

For the compound `CC1CN(S(=O)(=O)c2ccc(C(=O)Nc3ccccc3F)cc2)CC(C)O1` (stereo not drawn), the AC50 in the experiment with Escherichia coli was 25.1 µM (active).

With `CC1(C)CC(=O)C/C(=N\NC(=O)CCc2ccc(S(=O)(=O)N3CCOCC3)cc2)C1`, the concentration at half-maximal activity (AC50) in the experiment on Escherichia coli is 44.6 µM (active).

The term IC50 denotes the concentration that inhibits the measured activity by half. On to `CC1=C(CC(=O)c2ccccc2)C(=O)c2ccccc2C1=O`, for which the figures for the AC50 (in [8]; in the experiment on A-375; in experiment [10]) were 18.7 µM (active), 42.7 µM (active) and 7.15 µM (active), respectively. Further, the IC50 in [9] is 28.8 µM (active). Besides, on Protein RecA, the EC50 was 3.45 µM (active).
